From ChEMBL document CHEMBL3885881, “DrugMatrix”

Species on record: Rattus norvegicus
Assay: DrugMatrix - Regimen: Daily Repeat
Type: toxicity, organism-based, Sprague-Dawley
Design: regimen Daily Repeat, gender Male, age 6-8 weeks
Conditions: in vivo, ip, route intraperitoneal, vehicle 100 % SALINE; for ABSOLUTE BASOPHIL / ABSOLUTE EOSINOPHIL / ABSOLUTE LYMPHOCYTE / ABSOLUTE MONOCYTE / ABSOLUTE SEGMENTED NEUTROPHIL / BASOPHIL / EOSINOPHIL / ERYTHROCYTE COUNT / HEMATOCRIT / HEMOGLOBIN / LEUKOCYTE COUNT / LYMPHOCYTE / MEAN CORPUSCULAR HEMOGLOBIN / MEAN CORPUSCULAR HEMOGLOBIN CONCENTRATION / MEAN CORPUSCULAR VOLUME / MONOCYTE / NEUTROPHIL / PLATELET COUNT: tissue Blood
[1] = 0 mg/kg, 120 h, dose level Control, time 5 day
[2] = 0 mg/kg, 120 h, tissue Plasma, dose level Control, time 5 day
[3] = 0 mg/kg, […], dose level Control, time 14 day
[4] = 0 mg/kg, […], dose level Control, time 28 day
[5] = 0 mg/kg, […], tissue Plasma, dose level Control, time 14 day
[6] = 0 mg/kg, […], tissue Plasma, dose level Control, time 28 day

COBALTOUS CHLORIDE
ABSOLUTE BASOPHIL [1]: 32 cells/µL
ABSOLUTE EOSINOPHIL [1]: 110 cells/µL
ABSOLUTE LYMPHOCYTE [1]: 6630 cells/µL
ABSOLUTE MONOCYTE [1]: 140 cells/µL
ABSOLUTE SEGMENTED NEUTROPHIL [1]: 1170 cells/µL
BASOPHIL [1]: 0.38%
EOSINOPHIL [1]: 1.28%
ERYTHROCYTE COUNT [1]: 7.45 x10E6/uL
HEMATOCRIT [1]: 45.74%
HEMOGLOBIN [1]: 14.72 G/DL
LEUKOCYTE COUNT [1]: 8.11 x10E3/uL
LYMPHOCYTE [1]: 81.3%
MEAN CORPUSCULAR HEMOGLOBIN [1]: 19.76 pg
MEAN CORPUSCULAR HEMOGLOBIN CONCENTRATION [1]: 32.16 G/DL
MEAN CORPUSCULAR VOLUME [1]: 61.38 fL
MONOCYTE [1]: 1.76%
NEUTROPHIL [1]: 14.9%
PLATELET COUNT [1]: 1322.4 x10E3/uL
ALANINE AMINOTRANSFERASE [2]: 25.8 u/L
ALBUMIN [2]: 3.64 G/DL
ASPARTATE AMINOTRANSFERASE [2]: 81.4 u/L
BLOOD UREA NITROGEN [2]: 14.4 mg/dL
CHOLESTEROL [2]: 69.2 mg/dL
CREATINE PHOSPHOKINASE [2]: 303.2 u/L
CREATININE [2]: 0.56 mg/dL
GLUCOSE [2]: 125.4 mg/dL
LACTATE DEHYDROGENASE [2]: 105.4 u/L
LIPASE [2]: 22.4 u/L
POTASSIUM [2]: 5.52 MEQ/L
SODIUM [2]: 147 MEQ/L
TOTAL BILIRUBIN [2]: 0.2 mg/dL
TOTAL PROTEIN [2]: 6.1 G/DL
URIC ACID [2]: 1.06 mg/dL
ABSOLUTE BASOPHIL [3]: 130 cells/µL
ABSOLUTE EOSINOPHIL [3]: 140 cells/µL
ABSOLUTE LYMPHOCYTE [3]: 13500 cells/µL
ABSOLUTE MONOCYTE [3]: 400 cells/µL
ABSOLUTE SEGMENTED NEUTROPHIL [3]: 2330 cells/µL
BASOPHIL [3]: 0.72%
EOSINOPHIL [3]: 0.86%
ERYTHROCYTE COUNT [3]: 7.74 x10E6/uL
HEMATOCRIT [3]: 45.98%
LEUKOCYTE COUNT [3]: 16.61 x10E3/uL
LYMPHOCYTE [3]: 81.34%
MEAN CORPUSCULAR HEMOGLOBIN [3]: 18 pg
MEAN CORPUSCULAR HEMOGLOBIN CONCENTRATION [3]: 30.22 G/DL
MEAN CORPUSCULAR VOLUME [3]: 59.4 fL
MONOCYTE [3]: 2.46%
NEUTROPHIL [3]: 14.14%
PLATELET COUNT [3]: 1445.5 x10E3/uL
ABSOLUTE BASOPHIL [4]: 91 cells/µL
ABSOLUTE EOSINOPHIL [4]: 110 cells/µL
ABSOLUTE LYMPHOCYTE [4]: 9910 cells/µL
ABSOLUTE MONOCYTE [4]: 210 cells/µL
ABSOLUTE SEGMENTED NEUTROPHIL [4]: 1560 cells/µL
BASOPHIL [4]: 0.77%
EOSINOPHIL [4]: 0.92%
ERYTHROCYTE COUNT [4]: 8.21 x10E6/uL
HEMATOCRIT [4]: 47.53%
HEMOGLOBIN [4]: 15.65 G/DL
LEUKOCYTE COUNT [4]: 11.91 x10E3/uL
LYMPHOCYTE [4]: 83.34%
MEAN CORPUSCULAR HEMOGLOBIN [4]: 19.07 pg
MEAN CORPUSCULAR HEMOGLOBIN CONCENTRATION [4]: 32.93 G/DL
MEAN CORPUSCULAR VOLUME [4]: 57.9 fL
MONOCYTE [4]: 1.68%
NEUTROPHIL [4]: 12.97%
PLATELET COUNT [4]: 1323.8 x10E3/uL
ALANINE AMINOTRANSFERASE [5]: 31.6 u/L
ALBUMIN [5]: 3.66 G/DL
ALKALINE PHOSPHATASE [5]: 228.6 u/L
ASPARTATE AMINOTRANSFERASE [5]: 79.6 u/L
BLOOD UREA NITROGEN [5]: 11.2 mg/dL
CHLORIDE [5]: 107 MEQ/L
CHOLESTEROL [5]: 57 mg/dL
CREATININE [5]: 0.5 mg/dL
GLUCOSE [5]: 124.4 mg/dL
LACTATE DEHYDROGENASE [5]: 106.4 u/L
LIPASE [5]: 24.4 u/L
PHOSPHORUS [5]: 10.52 mg/dL
POTASSIUM [5]: 6.34 MEQ/L
SODIUM [5]: 149.2 MEQ/L
TOTAL BILIRUBIN [5]: 0.2 mg/dL
TOTAL PROTEIN [5]: 6.48 G/DL
URIC ACID [5]: 0.94 mg/dL
ALANINE AMINOTRANSFERASE [6]: 30 u/L
ALBUMIN [6]: 3.71 G/DL
ALKALINE PHOSPHATASE [6]: 186.8 u/L
ASPARTATE AMINOTRANSFERASE [6]: 78.2 u/L
BLOOD UREA NITROGEN [6]: 14.2 mg/dL
CHOLESTEROL [6]: 44.9 mg/dL
CREATINE PHOSPHOKINASE [6]: 334.3 u/L
CREATININE [6]: 0.6 mg/dL
GLUCOSE [6]: 147.2 mg/dL
LACTATE DEHYDROGENASE [6]: 123.1 u/L
LIPASE [6]: 9.6 u/L
PHOSPHORUS [6]: 10.01 mg/dL
POTASSIUM [6]: 6.57 MEQ/L
SODIUM [6]: 149.5 MEQ/L
TOTAL BILIRUBIN [6]: 0.21 mg/dL
TOTAL PROTEIN [6]: 6.66 G/DL
URIC ACID [6]: 1.26 mg/dL
ABSOLUTE BASOPHIL (10 mg/kg, 120 h, dose level High, time 5 day): 46 cells/µL
